Measured values from ChEMBL document CHEMBL5360672, “Identification of Novel Dual-Target Estrogen Receptor α Degraders with Tubulin Inhibitory Activity for the Treatment of Endocrine-Resistant Breast Cancer” (J Med Chem, 2023).

Columns and labels:
[1] = Selectivity index, ratio of IC50 for cytotoxicity against human MCF-10A cells to IC50 for antiproliferative activity against human MCF7 cells; assay type: toxicity, cell-based; details: MCF-10A cells and MCF7 cells, read-out: Ratio IC50
[2] = system: T47D; assay: Antiproliferative activity against ERalpha positive human T47D cells assessed as inhibition of cell proliferation incubated for 72 hrs by CCK8 assay; assay type: functional, cell-based
[3] = system: MCF7; assay: Antiproliferative activity against ERalpha positive human MCF7 cells assessed as inhibition of cell proliferation incubated for 72 hrs by CCK8 assay; assay type: functional, cell-based; details: MCF7, 72 h
[4] = Cytotoxicity against human MCF-10A cells assessed as inhibition of cell proliferation incubated for 72 hrs by CCK8 assay; assay type: toxicity, cell-based
[5] = species on record: Homo sapiens; assay: Selectivity ratio of relative binding affinity for human ERalpha to relative binding affinity to human ERbeta
[6] = target: Estrogen receptor beta (Homo sapiens) (UniProt Q92731); assay: Binding affinity to human ERbeta assessed as relative binding affinity incubated under vibration for 1 min followed by 2 hrs incubation under dark condition by fluorescence polarization assay relative to estradiol; details: time 121.0 min
Chain of Estrogen receptor beta (Homo sapiens) (Q92731 whole entry): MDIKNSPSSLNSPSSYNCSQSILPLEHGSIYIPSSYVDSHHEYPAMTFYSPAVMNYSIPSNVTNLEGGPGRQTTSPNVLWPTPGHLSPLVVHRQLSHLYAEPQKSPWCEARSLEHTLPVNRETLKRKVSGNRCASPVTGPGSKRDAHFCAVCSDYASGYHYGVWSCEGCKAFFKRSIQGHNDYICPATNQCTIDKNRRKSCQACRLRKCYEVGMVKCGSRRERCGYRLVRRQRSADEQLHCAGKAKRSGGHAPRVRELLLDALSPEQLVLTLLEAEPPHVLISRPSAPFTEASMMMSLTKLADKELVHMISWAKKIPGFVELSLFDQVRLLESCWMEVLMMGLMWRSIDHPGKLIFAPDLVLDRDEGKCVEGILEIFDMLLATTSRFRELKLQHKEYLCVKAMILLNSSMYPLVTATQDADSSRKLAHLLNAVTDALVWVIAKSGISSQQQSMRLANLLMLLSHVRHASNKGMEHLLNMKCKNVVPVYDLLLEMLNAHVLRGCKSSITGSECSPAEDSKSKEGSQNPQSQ

[7] = target: T1, Estrogen receptor (Homo sapiens) (UniProt P03372); assay: Binding affinity to human ERalpha assessed as relative binding affinity incubated under vibration for 1 min followed by 2 hrs incubation under dark condition by fluorescence polarization assay relative to estradiol; details: time 121.0 min
T1 sequence (whole entry): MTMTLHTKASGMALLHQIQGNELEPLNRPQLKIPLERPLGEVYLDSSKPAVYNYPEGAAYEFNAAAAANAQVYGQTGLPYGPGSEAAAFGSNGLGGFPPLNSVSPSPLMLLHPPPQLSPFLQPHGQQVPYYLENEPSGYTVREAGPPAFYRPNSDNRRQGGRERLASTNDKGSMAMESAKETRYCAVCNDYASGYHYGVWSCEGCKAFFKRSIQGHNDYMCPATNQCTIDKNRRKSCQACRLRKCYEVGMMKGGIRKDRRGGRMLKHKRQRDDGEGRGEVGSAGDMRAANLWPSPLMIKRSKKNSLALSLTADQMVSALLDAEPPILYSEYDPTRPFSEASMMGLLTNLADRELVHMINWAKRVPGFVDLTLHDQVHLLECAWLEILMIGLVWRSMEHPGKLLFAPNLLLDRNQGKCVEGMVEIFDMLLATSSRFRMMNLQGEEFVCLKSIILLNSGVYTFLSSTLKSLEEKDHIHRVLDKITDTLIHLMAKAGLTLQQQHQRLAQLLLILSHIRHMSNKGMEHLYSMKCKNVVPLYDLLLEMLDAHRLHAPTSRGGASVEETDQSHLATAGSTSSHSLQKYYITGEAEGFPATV

SMILES	selectivity ratio [1]	IC50 [2]	IC50 [3]	IC50 at 72 h [4]	Selectivity ratio [5]	RBA [6]	RBA [7]
N#C[Se]CCCCCC(=O)Nc1ccc(C2=C(c3ccc(O)cc3)C3CC(S(=O)(=O)Oc4ccccc4C(F)(F)F)C2O3)cc1 (stereo unspecified)	36.9	1.77 µM	0.35 µM	12.9 µM	10.6	5.79%	23.1%
N#C[Se]CCCCCC(=O)Nc1ccc(C2=C(c3ccc(O)cc3)C3CC(S(=O)(=O)Oc4ccc(F)cc4)C2O3)cc1 (stereo unspecified)	9.75	1.43 µM	1.18 µM	11.5 µM	0.55	3.74%	2.05%
N#C[Se]CCCCCC(=O)Nc1ccc(C2=C(c3ccc(O)cc3)C3CC(S(=O)(=O)Oc4cccc(Br)c4)C2O3)cc1 (stereo unspecified)	18.5	2.84 µM	1.23 µM	22.7 µM	1.9	0.31%	0.59%
N#C[Se]CC(=O)Nc1ccc(C2=C(c3ccc(O)cc3)C3CC(S(=O)(=O)Oc4ccccc4)C2O3)cc1 (stereo unspecified)	14	24.6 µM	2.76 µM	38.6 µM	2.38	0.24%	0.57%
N#C[Se]CCCCCC(=O)Nc1ccc(C2=C(c3ccc(O)cc3)C3CC(S(=O)(=O)Oc4ccccc4Br)C2O3)cc1 (stereo unspecified)	8.78	1.71 µM	0.86 µM	7.55 µM	12.3	0.18%	2.21%
N#C[Se]CCCCCC(=O)Nc1ccc(C2=C(c3ccc(O)cc3)C3CC(S(=O)(=O)Oc4ccccc4O)C2O3)cc1 (stereo unspecified)	23.4	3.58 µM	0.32 µM	7.49 µM	26.9	1.15%	30.9%
COc1ccccc1OS(=O)(=O)C1CC2OC1C(c1ccc(NC(=O)CCCCC[Se]C#N)cc1)=C2c1ccc(O)cc1 (stereo unspecified)	15	1.8 µM	0.49 µM	7.37 µM	12.4	1.29%	16%
COc1cc2c(c(OC)c1OC)-c1ccc(OC)c(=O)cc1[C@@H](NC(C)=O)CC2 [COLCHICINE]	–	0.00028 µM	0.001 µM	–	–	–	–
N#C[Se]CCCCCC(=O)Nc1ccc(C2=C(c3ccc(O)cc3)C3CC(S(=O)(=O)Oc4ccc(O)cc4)C2O3)cc1 (stereo unspecified)	6.94	4.98 µM	1.5 µM	10.4 µM	10.7	0.73%	7.83%
N#C[Se]CCCCCC(=O)Nc1ccc(C2=C(c3ccc(O)cc3)C3CC(S(=O)(=O)Oc4ccc(Cl)cc4)C2O3)cc1 (stereo unspecified)	8.94	3.52 µM	1.32 µM	11.8 µM	0.23	2.64%	0.6%
N#C[Se]CCCCCC(=O)Nc1ccc(C2=C(c3ccc(O)cc3)C3CC(S(=O)(=O)Oc4ccccc4Cl)C2O3)cc1 (stereo unspecified)	20.7	2.55 µM	0.49 µM	10.1 µM	5.4	1.52%	8.21%
Cc1ccc(OS(=O)(=O)C2CC3OC2C(c2ccc(NC(=O)CCCCC[Se]C#N)cc2)=C3c2ccc(O)cc2)cc1 (stereo unspecified)	15	3.13 µM	2.75 µM	41.1 µM	1.26	2.63%	3.31%
N#C[Se]CCCCCC(=O)Nc1ccc(C2=C(c3ccc(O)cc3)C3CC(S(=O)(=O)Oc4ccc5ccccc5c4)C2O3)cc1 (stereo unspecified)	7.52	> 31 µM	3 µM	22.6 µM	19.6	0.23%	4.51%
Cc1ccccc1OS(=O)(=O)C1CC2OC1C(c1ccc(NC(=O)CCCCC[Se]C#N)cc1)=C2c1ccc(O)cc1 (stereo unspecified)	16.5	2.23 µM	0.62 µM	10.2 µM	4.53	3.12%	14.1%
N#C[Se]CCCCCC(=O)Nc1ccc(C2=C(c3ccc(O)cc3)C3CC(S(=O)(=O)Oc4cccc(F)c4)C2O3)cc1 (stereo unspecified)	22.4	2.05 µM	0.78 µM	17.5 µM	6.25	0.53%	3.31%
Cc1cccc(OS(=O)(=O)C2CC3OC2C(c2ccc(NC(=O)CCCCC[Se]C#N)cc2)=C3c2ccc(O)cc2)c1 (stereo unspecified)	42.5	13.3 µM	0.71 µM	30.2 µM	0.77	1.29%	0.99%
N#C[Se]CCCCCC(=O)Nc1ccc(C2=C(c3ccc(O)cc3)C3CC(S(=O)(=O)Oc4cccc(C(F)(F)F)c4)C2O3)cc1 (stereo unspecified)	94.1	> 31 µM	0.57 µM	53.6 µM	0.57	0.3%	0.17%
COc1ccc(OS(=O)(=O)C2CC3OC2C(c2ccc(NC(=O)CCCCC[Se]C#N)cc2)=C3c2ccc(O)cc2)cc1 (stereo unspecified)	4.99	1.97 µM	2.62 µM	13.1 µM	19.4	0.05%	0.97%
N#C[Se]CCCCCCCC(=O)Nc1ccc(C2=C(c3ccc(O)cc3)C3CC(S(=O)(=O)Oc4ccccc4)C2O3)cc1 (stereo unspecified)	12	> 31 µM	1.71 µM	20.5 µM	0.34	2.06%	0.71%
N#C[Se]CCCCCC(=O)Nc1ccc(C2=C(c3ccc(O)cc3)C3CC(S(=O)(=O)Oc4ccc(Br)cc4)C2O3)cc1 (stereo unspecified)	10.1	120 µM	1.85 µM	18.6 µM	0.09	3.48%	0.31%
N#C[Se]CCCCCC(=O)Nc1ccc(C2=C(c3ccc(O)cc3)C3CC(S(=O)(=O)Oc4cccc5ccccc45)C2O3)cc1 (stereo unspecified)	5.72	1.71 µM	2.43 µM	13.9 µM	1.72	9%	15.5%
N#C[Se]CCCCCC(=O)Nc1ccc(C2=C(c3ccc(O)cc3)C3CC(S(=O)(=O)Oc4cccc(O)c4)C2O3)cc1 (stereo unspecified)	> 46.5	> 31 µM	1.29 µM	> 60 µM	15.6	0.91%	14.2%
N#C[Se]CCCCCCOc1ccc(OS(=O)(=O)C2CC3OC2C(c2ccc(O)cc2)=C3c2ccc(O)cc2)cc1 (stereo unspecified)	2.1	7.47 µM	5.14 µM	10.8 µM	5.77	1.73%	9.98%
N#C[Se]CCCCCC(=O)Nc1ccc(C2=C(c3ccc(O)cc3)C3CC(S(=O)(=O)Oc4cccc(Cl)c4)C2O3)cc1 (stereo unspecified)	42.4	4.09 µM	0.7 µM	29.7 µM	40.8	0.1%	4.08%
N#C[Se]CCCCCC(=O)Nc1ccc(C2=C(c3ccc(O)cc3)C3CC(S(=O)(=O)Oc4ccc(C(F)(F)F)cc4)C2O3)cc1 (stereo unspecified)	5.72	3.02 µM	2.84 µM	16.2 µM	2.75	1.61%	4.43%
N#C[Se]CCCCCC(=O)Nc1ccc(C2=C(c3ccc(O)cc3)C3CC(S(=O)(=O)Oc4ccccc4)C2O3)cc1 (stereo unspecified)	> 49.2	3.21 µM	1.22 µM	> 60 µM	6.05	0.78%	4.72%
N#C[Se]CCCC(=O)Nc1ccc(C2=C(c3ccc(O)cc3)C3CC(S(=O)(=O)Oc4ccccc4)C2O3)cc1 (stereo unspecified)	29.7	18.1 µM	2.02 µM	59.9 µM	0.62	1.7%	1.05%
COc1cccc(OS(=O)(=O)C2CC3OC2C(c2ccc(NC(=O)CCCCC[Se]C#N)cc2)=C3c2ccc(O)cc2)c1 (stereo unspecified)	7.99	3.21 µM	2.49 µM	19.9 µM	34.7	0.35%	12.1%
